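Protocol summary: plate cells (96-well), add compound at 5 concentrations, incubate 48 h, interpolate endpoints linearly. GI50 marks 50% less growth.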 Calls of active or inactive are those of the source. Cut-off read from the data, not from the text of the source: active = GI50 up to about 1.1 µM and inactive = higher.
Assays:
Test in all cases: growth of human tumour cells (NCI), 48 h
Hs-578T = test system: Hs-578T
OVCAR-8 = test system: OVCAR-8
SN12C = test system: SN12C
HOP-92 = test system: HOP-92
PC-3 = test system: PC-3
DU-145 = test system: DU-145
A549 = test system: A549
OVCAR-3 = test system: OVCAR-3
EKVX = test system: EKVX
NCI-H226 = test system: NCI-H226
NCI-H522 = test system: NCI-H522
SNB-19 = test system: SNB-19
CAKI-1 = test system: CAKI-1
RPMI-8226 = test system: RPMI-8226
K562 = test system: K562
T47D = test system: T47D
HCT-116 = test system: HCT-116
SNB-75 = test system: SNB-75
A498 = test system: A498

Measured: GI50

O=C(N/C(=C/c1ccc(Cl)cc1Cl)c1nc2ccccc2s1)c1ccccc1
inactive: Hs-578T 12.1 µM | OVCAR-8 18.6 µM | SN12C 9.68 µM | HOP-92 52.6 µM | PC-3 18 µM | DU-145 16.2 µM | A549 18.1 µM | OVCAR-3 7.78 µM | EKVX 18.5 µM | NCI-H226 13.6 µM | NCI-H522 8.34 µM | SNB-19 19.5 µM | CAKI-1 15.8 µM | RPMI-8226 12.1 µM | K562 18.5 µM | T47D 13.4 µM | HCT-116 6.78 µM | SNB-75 17.9 µM

OC1=C2c3ccccc3NC2Oc2cc(F)ccc21 (stereo unspecified)
inactive: Hs-578T 34.7 µM | OVCAR-8 27 µM | SN12C 12.7 µM | HOP-92 18 µM | PC-3 18.8 µM | DU-145 18.5 µM | A549 19.5 µM | OVCAR-3 11.9 µM | EKVX 3.6 µM | NCI-H226 22.4 µM | NCI-H522 17.7 µM | A498 15.3 µM | SNB-19 20.3 µM | CAKI-1 19.5 µM | K562 15.6 µM | T47D 19.2 µM | HCT-116 14 µM

O=C(Nc1nnc(-c2ccccc2)o1)C(SC(=S)N1CCCC1)c1ccccc1 (stereo unspecified)
inactive: Hs-578T 87.9 µM | OVCAR-8 32 µM | SN12C 16.7 µM | PC-3 27.8 µM | DU-145 30.6 µM | A549 26.4 µM | OVCAR-3 23.5 µM | EKVX 22.3 µM | NCI-H226 32.1 µM | NCI-H522 22.3 µM | A498 27.1 µM | SNB-19 38.5 µM | CAKI-1 29.9 µM | RPMI-8226 24.3 µM | K562 24.4 µM | T47D 46.8 µM | HCT-116 25.1 µM | SNB-75 40.8 µM

Cc1cc(S(=O)(=O)N=C2NCC(C)(C)CN2)c(S)cc1Cl
inactive: Hs-578T 32 µM | OVCAR-8 27 µM | SN12C 47.1 µM | PC-3 30.3 µM | DU-145 83.6 µM | A549 19 µM | OVCAR-3 35.7 µM | EKVX 48.8 µM | NCI-H226 32.1 µM | NCI-H522 27.9 µM | A498 > 100 µM | SNB-19 36.6 µM | CAKI-1 52 µM | K562 25.5 µM | T47D 42.1 µM | HCT-116 27.5 µM | SNB-75 48.5 µM

O=[N+]([O-])C(C(Cl)=C(Cl)Cl)=C(N1CCCCC1)N1CCCCC1
inactive: Hs-578T 13.8 µM | OVCAR-8 > 100 µM | SN12C > 100 µM | PC-3 > 100 µM | DU-145 > 100 µM | A549 > 100 µM | OVCAR-3 62.2 µM | EKVX > 100 µM | NCI-H226 > 100 µM | A498 > 100 µM | SNB-19 1.95 µM | CAKI-1 58.6 µM | RPMI-8226 84.1 µM | K562 90.2 µM | T47D 45.6 µM | HCT-116 > 100 µM | SNB-75 > 100 µM

N#Cc1c(SCc2ccccc2)nc(-c2ccccc2)[nH]c1=S
inactive: Hs-578T 32.1 µM | OVCAR-8 27.6 µM | SN12C 32.5 µM | HOP-92 31.6 µM | PC-3 18.7 µM | DU-145 42 µM | A549 30.8 µM | OVCAR-3 18.5 µM | EKVX 31.5 µM | NCI-H226 26.5 µM | A498 27.3 µM | SNB-19 29.9 µM | CAKI-1 33.3 µM | RPMI-8226 24.7 µM | K562 31.6 µM | T47D 22.4 µM | HCT-116 23.7 µM | SNB-75 19.1 µM

COc1cc(N(CCC#N)CCC#N)ccc1C(=N/NC(=O)c1cc(Br)ccc1O)/N=N/c1ccc(C)cc1
inactive: Hs-578T 40.2 µM | OVCAR-8 22.8 µM | SN12C 17.3 µM | HOP-92 20.8 µM | PC-3 20.6 µM | DU-145 27.4 µM | A549 28.8 µM | OVCAR-3 22.9 µM | EKVX 21.7 µM | NCI-H226 32.4 µM | NCI-H522 18 µM | SNB-19 25.6 µM | CAKI-1 27.9 µM | RPMI-8226 22.2 µM | K562 37.2 µM | T47D 4.36 µM | HCT-116 16.1 µM | SNB-75 22.6 µM

CN(C)C(n1cc2c(c1)-c1ccc(Cl)cc1C(c1ccccc1F)=NC2)n1cc2c(c1)-c1ccc(Cl)cc1C(c1ccccc1F)=NC2
inactive: Hs-578T > 100 µM | OVCAR-8 > 100 µM | SN12C > 100 µM | PC-3 46.6 µM | DU-145 54 µM | A549 52.4 µM | OVCAR-3 87.5 µM | EKVX > 100 µM | NCI-H226 13 µM | NCI-H522 81.8 µM | A498 8.17 µM | SNB-19 > 100 µM | CAKI-1 > 100 µM | RPMI-8226 > 100 µM | K562 > 100 µM | T47D 38.4 µM | HCT-116 61.1 µM | SNB-75 24.7 µM

Source: ChEMBL document CHEMBL1201862, “PubChem BioAssay data set” (2004)
